Where a name gives a salt, the structure may show the parent alone. Read-outs that look alike come from different tables or passages of the source.
Molecular target: human σ1 receptor (Homo sapiens, UniProt Q99720)
Experiment: biochemical
Type: binding
Parameters: μ and σ1 dual binding: key to the marks not given beside the values
[1] = read-out: μ and σ1 dual binding
[2] = combined class from Ki-σ1 (human σ1 receptor, A1) and Ki-μ (human μ-opioid receptor, A2) radioligand binding

Chain of human σ1 receptor (Q99720 whole entry): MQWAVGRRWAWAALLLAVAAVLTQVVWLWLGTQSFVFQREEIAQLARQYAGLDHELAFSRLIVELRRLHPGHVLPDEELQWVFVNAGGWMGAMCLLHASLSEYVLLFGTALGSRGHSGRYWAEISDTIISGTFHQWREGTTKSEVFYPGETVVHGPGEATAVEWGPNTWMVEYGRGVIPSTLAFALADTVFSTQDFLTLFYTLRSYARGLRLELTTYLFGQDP

| SMILES | Ki [1] | also measured |
| --- | --- | --- |
| Nc1cccc(CN2CC3(CCN(CCc4ccccc4)CC3)OCC2=O)n1 [Example 104, 4-((6-aminopyridin-2-yl)methyl)-9-phenethyl-1-oxa-4,9-diazaspiro[5.5]undecan-3-one] | > 500 nM | – |
| O=C1COC2(CCN(CCc3ccccc3)CC2)CN1Cc1ccc(Cl)cn1 [Example 105, 4-((5-chloropyridin-2-yl)methyl)-9-phenethyl-1-oxa-4,9-diazaspiro[5.5]undecan-3-one hydrochloride] | < 100 nM | – |
| CC(C)(C)OC(=O)Nc1nc(CCN2CCC3(CC2)CN(Cc2ccc(C(F)(F)F)cn2)C(=O)CO3)cs1 [Example 106, tert-butyl (4-(2-(3-oxo-4-((5-(trifluoromethyl)pyridin-2-yl)methyl)-1-oxa-4,9-diazaspiro[5.5]undecan-9-yl)ethyl)thiazol-2-yl)carbamate] | > 500 nM | – |
| CNS(=O)(=O)c1ccc(CCN2CCC3(CC2)CN(c2ccccc2)C(=O)C(C)O3)cc1 (stereo not shown) [Example 107, N-methyl-4-(2-(2-methyl-3-oxo-4-phenyl-1-oxa-4,9-diazaspiro[5.5]undecan-9-yl)ethyl)benzenesulfonamide] | > 500 nM | – |
| CC1OC2(CCN(CCc3ccc(S(N)(=O)=O)cc3)CC2)CN(c2ccccc2)C1=O (stereo not shown) [Example 108, 4-(2-(2-methyl-3-oxo-4-phenyl-1-oxa-4,9-diazaspiro[5.5]undecan-9-yl)ethyl)benzenesulfonamide] | > 500 nM | – |
| COc1ccc(CN2CC3(CCN(CCc4ccccc4)CC3)OC3(CC3)C2=O)cc1 [Example 109, 12-(4-methoxybenzyl)-8-phenethyl-4-oxa-8,12-diazadispiro[2.1.5.3]tridecan-13-one hydrochloride] | < 100 nM | – |
| CC1OC2(CCN(CCn3ccc([N+](=O)[O-])n3)CC2)CN(c2ccccc2)C1=O (stereo not shown) [Example 110, 2-methyl-9-(2-(3-nitro-1H-pyrazol-1-yl)ethyl)-4-phenyl-1-oxa-4,9-diazaspiro[5.5]undecan-3-one] | > 500 nM | – |
| COc1ccc(CCN2CCC3(CC2)CN(c2ccccc2)C(=O)C(C)O3)cn1 (stereo not shown) [Example 111, 9-(2-(6-methoxypyridin-3-yl)ethyl)-2-methyl-4-phenyl-1-oxa-4,9-diazaspiro[5.5]undecan-3-one] | – | μ and σ1 dual binding: ++ |
| CC1OC2(CCN(CCc3cncc(C(F)(F)F)c3)CC2)CN(c2ccccc2)C1=O (stereo not shown) [Example 112, 2-methyl-4-phenyl-9-(2-(5-(trifluoromethyl)pyridin-3-yl)ethyl)-1-oxa-4,9-diazaspiro[5.5]undecan-3-one hydrochloride] | – | Ki: < 500 nM |
| CC1OC2(CCN(CCc3ccc(Cl)nc3)CC2)CN(c2ccccc2)C1=O (stereo not shown) [Example 113, 9-(2-(6-chloropyridin-3-yl)ethyl)-2-methyl-4-phenyl-1-oxa-4,9-diazaspiro[5.5]undecan-3-one] | > 500 nM | – |
| CC1OC2(CCN(CCc3cncc(F)c3)CC2)CN(c2ccccc2)C1=O (stereo not shown) [Example 114, 9-(2-(5-fluoropyridin-3-yl)ethyl)-2-methyl-4-phenyl-1-oxa-4,9-diazaspiro[5.5]undecan-3-one hydrochloride] | – | Ki: < 500 nM |
| CC1OC2(CCN(CCc3cncc(Cl)c3)CC2)CN(c2ccccc2)C1=O (stereo not shown) [Example 115, 9-(2-(5-chloropyridin-3-yl)ethyl)-2-methyl-4-phenyl-1-oxa-4,9-diazaspiro[5.5]undecan-3-one hydrochloride] | – | Ki: < 500 nM |
| CC1OC2(CCN(CCn3nccc3NC(=O)OC(C)(C)C)CC2)CN(c2ccccc2)C1=O (stereo not shown) [Example 116, tert-butyl (1-(2-(2-methyl-3-oxo-4-phenyl-1-oxa-4,9-diazaspiro[5.5]undecan-9-yl)ethyl)-1H-pyrazol-5-yl)carbamate] | > 500 nM | – |
| CC(C)C1OC2(CCN(CCc3csc(NC(=O)OC(C)(C)C)n3)CC2)CN(c2ccccc2F)C1=O (stereo not shown) [Example 117, tert-butyl (4-(2-(4-(2-fluorophenyl)-2-isopropyl-3-oxo-1-oxa-4,9-diazaspiro[5.5]undecan-9-yl)ethyl)thiazol-2-yl)carbamate] | > 500 nM | – |
| CC(C)(C)OC(=O)Nc1nc(CCN2CCC3(CC2)CN(c2ccccc2)C(=O)C2(CC2)O3)cs1 [Example 118, tert-butyl (4-(2-(13-oxo-12-phenyl-4-oxa-8,12-diazadispiro[2.1.5.3]tridecan-8-yl)ethyl)thiazol-2-yl)carbamate] | > 500 nM | – |
| O=C1N(Cc2ccc(C(F)(F)F)cn2)CC2(CCN(CCc3cccc([N+](=O)[O-])c3)CC2)OC12CC2 [Example 119, 8-(3-nitrophenethyl)-12-{[5-(trifluoromethyl)pyridin-2-yl]methyl}-4-oxa-8,12-diazadispiro[2.1.5.3]tridecan-13-one] | > 500 nM | – |
| CC(C)(C)OC(=O)Nc1nc(CCN2CCC3(CC2)CN(Cc2ccc(C(F)(F)F)cn2)C(=O)C2(CC2)O3)cs1 [Example 120, tert-butyl (4-(2-(13-oxo-12-{[5-(trifluoromethyl)pyridin-2-yl]methyl}-4-oxa-8,12-diazadispiro[2.1.5.3]tridecan-8-yl)ethyl)thiazol-2-yl)carbamate] | > 500 nM | – |

| SMILES | Ki [1] | also measured |
| --- | --- | --- |
| CC1OC2(CCN(CCc3csc(NC(=O)OC(C)(C)C)n3)CC2)CN(c2cnccc2C(F)(F)F)C1=O (stereo not shown) [Example 121, tert-butyl (4-(2-(2-methyl-3-oxo-4-(4-(trifluoromethyl)pyridin-3-yl)-1-oxa-4,9-diazaspiro[5.5]undecan-9-yl)ethyl)thiazol-2-yl)carbamate] | > 500 nM | – |
| CC(C)OCCN1CCC2(CC1)CN(c1ccccc1)C(=O)C(C)O2 (stereo not shown) [Example 122, 9-(2-isopropoxyethyl)-2-methyl-4-phenyl-1-oxa-4,9-diazaspiro[5.5]undecan-3-one] | > 500 nM | – |
| CC1OC2(CCN(CCc3cccc(C#N)n3)CC2)CN(c2ccccc2)C1=O.Cl (stereo not shown) [Example 123, 6-(2-(2-methyl-3-oxo-4-phenyl-1-oxa-4,9-diazaspiro[5.5]undecan-9-yl)ethyl)picolinonitrile hydrochloride] | – | μ and σ1 dual binding: ++ |
| CC1OC2(CCN(CC(=O)N3CCOCC3)CC2)CN(Cc2ccc(C(F)(F)F)cn2)C1=O (stereo not shown) [Example 124, 2-methyl-9-(2-morpholino-2-oxoethyl)-4-((5-(trifluoromethyl)pyridin-2-yl)methyl)-1-oxa-4,9-diazaspiro[5.5]undecan-3-one hydrochloride] | > 500 nM | – |
| CC(C)OCCN1CCC2(CC1)CN(Cc1ccc(C(F)(F)F)cn1)C(=O)C(C)O2 (stereo not shown) [Example 125, 9-(2-isopropoxyethyl)-2-methyl-4-((5-(trifluoromethyl)pyridin-2-yl)methyl)-1-oxa-4,9-diazaspiro[5.5]undecan-3-one] | – | μ and σ1 dual binding [2]: ++ |
| CC1OC2(CCN(CCc3ccccc3F)CC2)CN(c2cnccc2C(F)(F)F)C1=O (stereo not shown) [Example 126, 9-(2-fluorophenethyl)-2-methyl-4-(4-(trifluoromethyl)pyridin-3-yl)-1-oxa-4,9-diazaspiro[5.5]undecan-3-one hydrochloride] | < 100 nM | – |
| C[C@@H]1OC2(CCN(CCc3ccccc3F)CC2)CN(c2cnccc2C(F)(F)F)C1=O.Cl [Example 127a, (S)-9-(2-fluorophenethyl)-2-methyl-4-(4-(trifluoromethyl)pyridin-3-yl)-1-oxa-4,9-diazaspiro[5.5]undecan-3-one hydrochloride] | – | μ and σ1 dual binding: ++ |
| C[C@H]1OC2(CCN(CCc3ccccc3F)CC2)CN(c2cnccc2C(F)(F)F)C1=O [Example 127b, (R)-9-(2-fluorophenethyl)-2-methyl-4-(4-(trifluoromethyl)pyridin-3-yl)-1-oxa-4,9-diazaspiro[5.5]undecan-3-one hydrochloride] | < 100 nM | – |
| CC1OC2(CCN(CC(=O)N3CCCCC3)CC2)CN(Cc2ccc(C(F)(F)F)cn2)C1=O (stereo not shown) [Example 128, 2-methyl-9-(2-oxo-2-(piperidin-1-yl)ethyl)-4-((5-(trifluoromethyl)pyridin-2-yl)methyl)-1-oxa-4,9-diazaspiro[5.5]undecan-3-one hydrochloride] | > 500 nM | – |
| CC1OC2(CCN(CC(=O)N3CCCCC3)CC2)CN(c2ccccc2)C1=O (stereo not shown) [Example 129, 2-methyl-9-(2-oxo-2-(piperidin-1-yl)ethyl)-4-phenyl-1-oxa-4,9-diazaspiro[5.5]undecan-3-one] | > 500 nM | – |
| CC1OC2(CCN(CCc3ccccc3F)CC2)CN(c2cccnc2C(F)(F)F)C1=O (stereo not shown) [Example 130, 9-(2-fluorophenethyl)-2-methyl-4-(2-(trifluoromethyl)pyridin-3-yl)-1-oxa-4,9-diazaspiro[5.5]undecan-3-one dihydrochloride] | < 500 nM | – |
| CC1OC2(CCN(CCC3CCOCC3)CC2)CN(c2ccccc2)C1=O.Cl (stereo not shown) [Example 131, 2-methyl-4-phenyl-9-(2-(tetrahydro-2H-pyran-4-yl)ethyl)-1-oxa-4,9-dizaspiro[5.5]undecan-3-one hydrochloride] | – | μ and σ1 dual binding: ++ |
| COc1cccc(CCN2CCC3(CC2)CN(c2ccccc2)C(=O)CO3)c1 [Example 132, 9-(3-methoxyphenethyl)-4-phenyl-1-oxa-4,9-diazaspiro[5.5]undecan-3-one] | < 500 nM | – |
| CC1OC2(CCN(CCc3ccncc3)CC2)CN(c2ccccc2)C1=O.Cl (stereo not shown) [Example 133, 2-methyl-4-phenyl-9-(2-(pyridin-4-yl)ethyl)-1-oxa-4,9-diazaspiro[5.5]undecan-3-one hydrochloride] | – | μ and σ1 dual binding: ++ |
| COCC1OC2(CCN(CCc3ccccn3)CC2)CN(c2ccccc2F)C1=O.Cl (stereo not shown) [Example 134, 4-(2-fluorophenyl)-2-(methoxymethyl)-9-(2-(pyridin-2-yl)ethyl)-1-oxa-4,9-diazaspiro[5.5]undecan-3-one hydrochloride] | – | μ and σ1 dual binding: ++ |
| COCC1OC2(CCN(CCc3ccccc3OC)CC2)CN(c2ccccc2F)C1=O (stereo not shown) [Example 135, 4-(2-fluorophenyl)-2-(methoxymethyl)-9-(2-methoxyphenethyl)-1-oxa-4,9-diazaspiro[5.5]undecan-3-one] | – | μ and σ1 dual binding [2]: ++ |
| COCC1OC2(CCN(CCc3ccccc3F)CC2)CN(c2ccccc2F)C1=O (stereo not shown) [Example 136, 9-(2-fluorophenethyl)-4-(2-fluorophenyl)-2-(methoxymethyl)-1-oxa-4,9-diazaspiro[5.5]undecan-3-one hydrochloride] | – | Ki: < 500 nM |

— patent US10703765B2 (priority 2014, dated 2020)
